From patent US4772619A, “[(1H-benzimidazol-2-ylsulfinyl)methyl]-2-pyridinamines” (G. D. Searle & Co., priority 1986, dated 1988)

What was measured:
[1] = system: gastric acid secretion; assay: Inhibition of Gastric Acid Secretion in Gastric Fistula Beagle Dogs; format: in vivo; conditions: 3 mg/kg dose, i.v.; histamine-stimulated, four-hour period
Description: Inhibition of Gastric Acid Secretion in Gastric Fistula Beagle Dogs
Adult female beagle dogs weighing 6 to 11 kilograms obtained from Laboratory Research Enterprises (Kalamazoo, Mich.) or from Hazelton Research Animals (Cumberland, Va.) were surgically implanted with a simple Thomas-type gastric cannula. After recovery from surgery, the dogs were trained to stand quietly, fully conscious, in Pavlov-type dog restraining slings and were acclimated to intravenous infusion of histamine dihydrochloride. During the course of these studies, no dog was used more than once a week. All dogs were deprived of food, but not water, for 18 hours prior to each assay. […] The volume of gastric secretions, collected in plastic bottles affixed to the cannula, were measured to the nearest 0.1 ml at 30 minute intervals. […]
Intravenous dosing: Following a 30-minute basal secretion period, test compounds were administered intravenously (i.v.). […] The pH and titratable acidity were determined for samples from each collection period. […]
Data from each protocol were analyzed for three gastric sample variables: volume of gastric juice, acid concentration, and total acid output. Percent inhibition for each four-hour experimental period was determined for each parameter by comparison with 3 to 4 controls in which only food was given. Estimates of ED50 's were determined from dose response curves.

[2] = target: T1, (H^+ +K^+)-ATPase (Canis lupus familiaris, UniProt P50996); assay: Inhibition of (H^+ +K^+)-ATPase from Canine Gastric Mucosa; format: biochemical, canine (mongrel dogs); conditions: canine gastric mucosa microsomes, pH 6.0, 30 min preincubation with compound at 37°
T1 construct: from tissue; host or cells: microsomes from glandular gastric mucosa (antral and cardiac regions removed) of mongrel dogs, lyophilized
T1 sequence (P50996 whole entry): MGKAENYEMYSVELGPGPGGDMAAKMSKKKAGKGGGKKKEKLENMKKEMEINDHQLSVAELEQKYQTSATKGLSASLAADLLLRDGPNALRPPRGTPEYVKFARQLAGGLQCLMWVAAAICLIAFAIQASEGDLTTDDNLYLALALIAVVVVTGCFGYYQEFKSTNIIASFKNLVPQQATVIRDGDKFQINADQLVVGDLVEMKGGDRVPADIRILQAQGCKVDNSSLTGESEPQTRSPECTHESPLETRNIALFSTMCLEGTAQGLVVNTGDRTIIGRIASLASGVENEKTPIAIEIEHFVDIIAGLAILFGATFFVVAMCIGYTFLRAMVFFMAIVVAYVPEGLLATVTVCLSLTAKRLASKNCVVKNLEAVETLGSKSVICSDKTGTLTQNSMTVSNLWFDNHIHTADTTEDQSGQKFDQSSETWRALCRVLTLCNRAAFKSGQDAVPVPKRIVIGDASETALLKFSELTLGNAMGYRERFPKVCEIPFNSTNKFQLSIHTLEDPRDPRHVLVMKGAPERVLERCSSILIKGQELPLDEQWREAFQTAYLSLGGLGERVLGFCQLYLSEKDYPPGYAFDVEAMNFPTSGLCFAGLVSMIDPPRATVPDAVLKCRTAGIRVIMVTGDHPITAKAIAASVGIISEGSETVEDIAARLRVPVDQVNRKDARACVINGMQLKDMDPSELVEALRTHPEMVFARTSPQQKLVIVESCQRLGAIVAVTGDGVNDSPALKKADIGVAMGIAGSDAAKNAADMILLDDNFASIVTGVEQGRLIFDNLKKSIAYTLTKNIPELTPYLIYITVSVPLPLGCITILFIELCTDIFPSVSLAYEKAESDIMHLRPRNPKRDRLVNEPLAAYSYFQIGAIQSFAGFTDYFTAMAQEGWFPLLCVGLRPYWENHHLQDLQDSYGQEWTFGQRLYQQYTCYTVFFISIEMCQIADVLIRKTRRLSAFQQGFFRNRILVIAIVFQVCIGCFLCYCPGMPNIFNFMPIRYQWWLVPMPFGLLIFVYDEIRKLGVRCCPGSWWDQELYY
T1 sequence (P33704 whole entry partner): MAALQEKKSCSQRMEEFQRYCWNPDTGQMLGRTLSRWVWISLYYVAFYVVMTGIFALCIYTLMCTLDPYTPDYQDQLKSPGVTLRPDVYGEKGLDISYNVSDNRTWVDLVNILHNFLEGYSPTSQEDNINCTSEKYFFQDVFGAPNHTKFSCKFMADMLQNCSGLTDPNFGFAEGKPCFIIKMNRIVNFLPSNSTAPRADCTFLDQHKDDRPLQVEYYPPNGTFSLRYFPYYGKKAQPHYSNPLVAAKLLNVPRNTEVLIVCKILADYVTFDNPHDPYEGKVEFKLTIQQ
Description: Mongrel dogs weighing 15 to 25 kilograms were fasted for twenty-four hours, with water provided ad libitum. The animals were anesthetized with pentobarbital and the stomachs were removed. Subsequent tissue manipulations and subcellular fractionations were performed at 0° to 4° C. After the stomachs were cut open and rinsed with tap water, the antral and cardiac regions were removed and the remaining tissue was rinsed three times in saline. The glandular mucosa was removed mechanically, chopped finely in a medium containing 10 mM Tris hydrochloride (pH 7.4) and 250 mM sucrose, and homogenized. The homogenate was centrifuged at 20,000xg for twenty minutes and the pellet discarded. The supernatant was then centrifuged at 150,000xg for ninety minutes and the supernatant discarded. […]
(H^+ +K^+)-ATPase activity for each test compound was determined, in duplicate, by measuring the release of inorganic phosphate, which was assayed according to the method of J. ChandraRajan and L. Klein. […] At least fifteen minutes later, the optical absorbance at 870 nm (which was proportional to inorganic phosphate concentration up to 100 nmoles per tube, as determined by a standard curve) was obtained. […]
(H^+ +K^+)-ATPase activity is represented by the difference between the measured activities in the presence of potassium ion (K^+ -stimulated) and in the absence of potassium ion (basal).

Nc1ncccc1C[S+]([O-])c1nc2ccccc2[nH]1.O (centres unmarked) [Example 3, 3-[(1H-benzimidazol-2-ylsulfinyl)methyl]-2-pyridinamine hydrate]
Gastric-Fistula Beagle % Inhibition [1]: 41%
IC50 [2]: 100 µM
